# Key:
# Assay in all cases: relative viability (nuclei count vs DMSO), 5 days (fraction); higher = more cells survive
# [1] = test system: NCI-H1755
# Summary of the method: (§1)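 Lung cancer cell lines in 1536-well plates were dosed by pin tool the day after seeding, either with one drug alone or with a fixed anchor-drug dose plus five library-drug doses (not always all listed) in √10 steps. After 5 days, cells were fixed and their nuclei stained in one step (final 0.05% Triton X-100, 1% formaldehyde, 1 ug/ml Hoechst), then counted on 4× images. Relative viability is the nuclei count in treated wells divided by that in vehicle wells. Values are medians of duplicate plates.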
# [2] = test system: LCLC-97TM1
# Summary of the method: as §1
# [3] = test system: NCI-H2009
# Summary of the method: as §1
# [4] = test system: NCI-H1975
# Summary of the method: as §1
# [5] = test system: NCI-H441
# Summary of the method: as §1
# [6] = test system: NCI-H460
# Summary of the method: as §1
# [7] = test system: NCI-H1355
# Summary of the method: as §1
# [8] = test system: NCI-H647
# Summary of the method: as §1
# [9] = test system: SK-LU-1
# Summary of the method: as §1
# [10] = test system: PC-3 [JPC-3]
# Summary of the method: as §1
# [11] = test system: NCI-H1793
# Summary of the method: as §1
# [12] = test system: NCI-H1993
# Summary of the method: as §1
# [13] = test system: NCI-H520
# Summary of the method: as §1
# [14] = test system: NCI-H1944
# Summary of the method: as §1
# [15] = test system: NCI-H2347
# Summary of the method: as §1
# [16] = test system: SW 1573
# Summary of the method: as §1
# [17] = test system: NCI-H727
# Summary of the method: as §1
# [18] = test system: NCI-H2170
# Summary of the method: as §1
# [19] = test system: EMC-BAC-2
# Summary of the method: as §1
# [20] = test system: NCI-H2126
# Summary of the method: as §1
# [21] = test system: PC-14
# Summary of the method: as §1
# [22] = test system: NCI-H1666
# Summary of the method: as §1
compound,measurement,setting,value
CCCCCCCCCCCC1=C(O)C(=O)C=C(O)C1=O [Embelin] + CC1(C)CCC(c2ccc(Cl)cc2)=C(CN2CCN(c3ccc(C(=O)NS(=O)(=O)c4ccc(N[C@H](CCN5CCOCC5)CSc5ccccc5)c(S(=O)(=O)C(F)(F)F)c4)cc3)CC2)C1 [Navitoclax] (partner 0.5 µM),relative viability,[1]; first compound 0.08 µM,0.993
same,relative viability,[1]; first compound 0.8 µM,1.03
same,relative viability,[1]; first compound 2.53 µM,1.07
same,relative viability,[1]; first compound 8 µM,0.991
same,relative viability,[2]; first compound 0.8 µM,0.46
same,relative viability,[2]; first compound 2.53 µM,0.499
same,relative viability,[2]; first compound 8 µM,0.399
same,relative viability,[3]; first compound 0.08 µM,1.23
same,relative viability,[3]; first compound 0.8 µM,1.24
same,relative viability,[3]; first compound 2.53 µM,1.23
same,relative viability,[3]; first compound 8 µM,1.08
same,relative viability,[4]; first compound 0.08 µM,1.13
same,relative viability,[4]; first compound 0.8 µM,1.29
same,relative viability,[4]; first compound 2.53 µM,1.13
same,relative viability,[4]; first compound 8 µM,1.11
same,relative viability,[5]; first compound 0.08 µM,0.52
same,relative viability,[5]; first compound 2.53 µM,0.56
same,relative viability,[5]; first compound 8 µM,0.667
same,relative viability,[6]; first compound 0.08 µM,1.07
same,relative viability,[6]; first compound 0.8 µM,1.26
same,relative viability,[6]; first compound 2.53 µM,1.4
same,relative viability,[6]; first compound 8 µM,1.08
same,relative viability,[7]; first compound 0.08 µM,1.04
same,relative viability,[7]; first compound 0.8 µM,1.05
same,relative viability,[7]; first compound 2.53 µM,1.06
same,relative viability,[7]; first compound 8 µM,0.884
same,relative viability,[8]; first compound 0.08 µM,1.25
same,relative viability,[8]; first compound 0.8 µM,1.35
same,relative viability,[8]; first compound 2.53 µM,1.21
same,relative viability,[8]; first compound 8 µM,1.2
same,relative viability,[9]; first compound 0.08 µM,0.808
same,relative viability,[9]; first compound 0.8 µM,1.16
same,relative viability,[9]; first compound 2.53 µM,0.786
same,relative viability,[9]; first compound 8 µM,0.832
same,relative viability,[10]; first compound 0.08 µM,0.82
same,relative viability,[10]; first compound 0.8 µM,0.752
same,relative viability,[10]; first compound 2.53 µM,0.941
same,relative viability,[10]; first compound 8 µM,0.72
same,relative viability,[11]; first compound 0.08 µM,0.461
same,relative viability,[11]; first compound 0.8 µM,0.46
same,relative viability,[11]; first compound 2.53 µM,0.498
same,relative viability,[11]; first compound 8 µM,0.369
same,relative viability,[12]; first compound 0.08 µM,0.958
same,relative viability,[12]; first compound 0.8 µM,0.84
same,relative viability,[12]; first compound 2.53 µM,0.916
same,relative viability,[12]; first compound 8 µM,0.893
same,relative viability,[13]; first compound 0.08 µM,1.24
same,relative viability,[13]; first compound 0.8 µM,1.26
same,relative viability,[13]; first compound 2.53 µM,1.07
same,relative viability,[13]; first compound 8 µM,1.04
same,relative viability,[14]; first compound 0.08 µM,1.01
same,relative viability,[14]; first compound 0.8 µM,1.11
same,relative viability,[14]; first compound 2.53 µM,1.06
same,relative viability,[14]; first compound 8 µM,0.941
same,relative viability,[15]; first compound 0.08 µM,0.746
same,relative viability,[15]; first compound 0.8 µM,0.95
same,relative viability,[15]; first compound 2.53 µM,1.01
same,relative viability,[15]; first compound 8 µM,0.811
same,relative viability,[16]; first compound 0.08 µM,0.973
same,relative viability,[16]; first compound 0.8 µM,0.976
same,relative viability,[16]; first compound 2.53 µM,1.02
same,relative viability,[16]; first compound 8 µM,1.02
same,relative viability,[17]; first compound 0.08 µM,0.4
same,relative viability,[17]; first compound 0.8 µM,0.537
same,relative viability,[17]; first compound 2.53 µM,0.435
same,relative viability,[17]; first compound 8 µM,0.392
same,relative viability,[18]; first compound 0.08 µM,0.641
same,relative viability,[18]; first compound 0.8 µM,0.678
same,relative viability,[18]; first compound 2.53 µM,0.698
same,relative viability,[18]; first compound 8 µM,0.547
same,relative viability,[19]; first compound 0.08 µM,1.17
same,relative viability,[19]; first compound 0.8 µM,1.17
same,relative viability,[19]; first compound 2.53 µM,1.33
same,relative viability,[19]; first compound 8 µM,1.3
same,relative viability,[20]; first compound 0.08 µM,0.879
same,relative viability,[20]; first compound 0.8 µM,0.801
same,relative viability,[20]; first compound 2.53 µM,0.848
same,relative viability,[20]; first compound 8 µM,0.869
same,relative viability,[21]; first compound 0.08 µM,0.968
same,relative viability,[21]; first compound 0.8 µM,1.05
same,relative viability,[21]; first compound 2.53 µM,0.997
same,relative viability,[21]; first compound 8 µM,1.06
same,relative viability,[22]; first compound 0.08 µM,1.21
same,relative viability,[22]; first compound 0.8 µM,1.22
same,relative viability,[22]; first compound 2.53 µM,0.995
same,relative viability,[22]; first compound 8 µM,0.999

# Source: the supplement of paper PMC10307832
